Results: US6355799B1, “Substituted benzene compounds, process for their preparation, and herbicidal and defoliant compositions containing them” (ISK Americas Incorporated, priority 1997, dated 2002)

Key:
Format in all cases: in vivo
Details in all cases: pre-emerge, 14 days after application, rating scale 0-100
[1] = system: velvetleaf (Abutilon theophrasti, ABUTH); assay: Pre-emerge test, greenhouse herbicide activity screening
In short: (§1)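 Applied at 15–1000 g ai/ha from acetone in 187 l/ha spray volume. Post-emergence applications included 0.25% v/v non-ionic surfactant and reached plants sown 8–21 days before. Pre-emergence applications were incorporated by surface watering. Efficacy or crop damage was rated on a 0–100 scale after 14 days.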

[2] = system: common ragweed (Ambrosia artemisizfolia L., AMBEL); assay: as above
In short: as §1

[3] = system: sicklepod (Cassia obtusifolia, CASOB); assay: as above
In short: as §1

[4] = system: lambsquarters (Chenopodium album, CHEAL); assay: as above
In short: as §1

[5] = system: ivyleaf morningglory (Ipomoea hederacea, IPOHE); assay: as above
In short: as §1

[6] = system: green foxtail (Setaria viridis, SETVI); assay: as above
In short: as §1

[7] = system: large crabgrass (Digitaria sanguinalis, DIGSA); assay: as above
In short: as §1

[8] = system: johnsongrass (Sorghum halepense, SORHA); assay: as above
In short: as §1

[9] = system: barnyardgrass (Echinochloa crus-galli, ECHCG); assay: as above
In short: as §1

[10] = system: redroot pigweed (Amaranthus retroflexus, AMARE); assay: as above
In short: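 Herbicidal damage is scored 0 (none) to 100 (complete plant death) two weeks after a simulated field spray. Rates span 15–1000 g ai/ha, delivered in acetone at 187 l/ha. For post-emergence treatments, plants have 2–3 leaves and the spray carries 0.25% v/v non-ionic surfactant.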

[11] = system: field corn (Zea mays L., var. Dekalb 535, CORN); assay: Pre-emerge test, crop safety
In short: (§2)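 Compounds in acetone were track-sprayed at 15-1000 g ai/ha (187 l/ha) on sandy loam pots: pre-emerge one day after seeding, post-emerge at 2-3 leaf stage with 0.25% v/v non-ionic surfactant. Phytotoxicity was rated 14 days later on a 0 (no damage) to 100 (complete death) scale.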

[12] = system: upland rice (Oryza sp., var. Tebonnet, RICE); assay: Pre-emerge test, crop safety
In short: as §2

Question: Which results are given for `CCOC(=O)C(Cl)Cc1c(OCC)c(Cl)cc(F)c1-n1c(=O)cc(C(F)(F)F)n(C)c1=O` (stereo not drawn) [14-64]?
Answer: phytotoxicity rating ABUTH ([1]; 63 g ai/ha): 90; phytotoxicity rating ABUTH ([1]; 250 g ai/ha): 100; phytotoxicity rating AMBEL ([2]; 63 g ai/ha): 20; phytotoxicity rating AMBEL ([2]; 250 g ai/ha): 60; phytotoxicity rating CASOB ([3]; 63 g ai/ha): 0; phytotoxicity rating CASOB ([3]; 250 g ai/ha): 0; phytotoxicity rating CHEAL ([4]; 63 g ai/ha): 60; phytotoxicity rating CHEAL ([4]; 250 g ai/ha): 100; phytotoxicity rating IPOHE ([5]; 63 g ai/ha): 0; phytotoxicity rating IPOHE ([5]; 250 g ai/ha): 0; phytotoxicity rating SETVI ([6]; 63 g ai/ha): 0; phytotoxicity rating SETVI ([6]; 250 g ai/ha): 100; phytotoxicity rating DIGSA ([7]; 63 g ai/ha): 50; phytotoxicity rating DIGSA ([7]; 250 g ai/ha): 100; phytotoxicity rating SORHA ([8]; 63 g ai/ha): 0; phytotoxicity rating SORHA ([8]; 250 g ai/ha): 20; phytotoxicity rating ECHCG ([9]; 63 g ai/ha): 0; phytotoxicity rating ECHCG ([9]; 250 g ai/ha): 95; phytotoxicity rating AMARE ([10]; 63 g ai/ha): 100; phytotoxicity rating AMARE ([10]; 250 g ai/ha): 100; phytotoxicity rating CORN ([11]; 63 g ai/ha): 0; phytotoxicity rating CORN ([11]; 250 g ai/ha): 0; phytotoxicity rating RICE ([12]; 63 g ai/ha): 0; phytotoxicity rating RICE ([12]; 250 g ai/ha): 10
